From patent US9346761B2, “Arginine methyltransferase inhibitors and uses thereof” (Epizyme, Inc., priority 2013, dated 2016) come the findings set out here.

Structures are written as SMILES.

For test [1], the target named is T1, Full-length human PRMT1 isoform 1 (Homo sapiens, UniProt Q99873).
T1 construct: GST-tagged PRMT1; made in house; host or cells: High Five insect cells (baculovirus, pFastBacI)
As to the kind of experiment: PRMT1 biochemical assay (3H-SAM Flashplate, peptide substrate). From the text:
General Materials. S-adenosylmethionine (SAM), S-adenosylhomocysteine (SAH), bicine, Tween20, dimethylsulfoxide (DMSO), bovine skin gelatin (BSG), and Tris(2-carboxyethyl)phosphine hydrochloride solution (TCEP) were purchased from Sigma-Aldrich at the highest level of purity possible. ^3H-SAM was purchase from American Radiolabeled Chemicals with a specific activity of 80 Ci/mmol. 384-well streptavidin Flashplates were purchased from PerkinElmer.
Protein Expression. Recombinant baculovirus were generated according to Bac-to-Bac kit instructions (Life Technologies). […] Infections were carried out at 27° C. for 48 hours, harvested by centrifugation, and stored at −80° C. for purification.
Protein Purification. […] GST-tagged PRMT1 was eluted with 50 mM Tris, 2 mM glutathione, pH 7.8, dialysed in buffer A and concentrated to 1 mg/mL.
(§1) General Procedure for PRMT1 Enzyme Assays on Peptide Substrates. The assays were all performed in a buffer consisting of 20 mM Bicine (pH=7.6), 1 mM TCEP, 0.005% BSG, and 0.002% Tween 20, prepared on the day of use. […] DMSO (1 ul) was added to Columns 11, 12, 23, 24, rows A-H for the maximum signal control and 1 ul of SAH, a known product and inhibitor of PRMT1, was added to columns 11, 12, 23, 24, rows I-P for the minimum signal control. A cocktail (40 ul) containing the PRMT1 enzyme was added by Multidrop Combi (Thermo-Fisher). The compounds were allowed to incubate with PRMT1 for 30 min at room temperature, then a cocktail (10 ul) containing SAM and peptide was added to initiate the reaction (final volume=51 ul). […] The assays were stopped by the addition of non-radiolabeled SAM (10 ul) to a final concentration of 300 uM, which dilutes the ^3H-SAM to a level where its incorporation into the peptide substrate is no longer detectable. 50 ul of the reaction in the 384-well polypropylene plate was then transferred to a 384-well Flashplate and the biotinylated peptides were allowed to bind to the streptavidin surface for at least 1 hour before being washed once with 0.1% Tween20 in a Biotek ELx405 plate washer. The plates were then read in a PerkinElmer TopCount plate reader to measure the quantity of ^3H-labeled peptide bound to the Flashplate surface, measured as disintegrations per minute (dpm) or alternatively, referred to as counts per minute (cpm).
(§2) Where dpm=disintegrations per minute, cmpd=signal in assay well, and min and max are the respective minimum and maximum signal controls.
(§3) Where top and bottom are the normally allowed to float, but may be fixed at 100 or 0 respectively in a 3-parameter fit. The Hill Coefficient normally allowed to float but may also be fixed at 1 in a 3-parameter fit. Y is the % inhibition and X is the compound concentration.

Test [2] addresses T2, Full-length human PRMT6 (Homo sapiens, UniProt Q96LA8).
T2 construct: Flag-PRMT6-His was eluted with 200 ug/ml FLAG peptide in the same buffer; made in house; host or cells: HEK 293F cells (BacMam virus, pFastBacMam)
As to the kind of experiment: PRMT6 biochemical assay (3H-SAM Flashplate, peptide substrate).
Text: General Materials. S-adenosylmethionine (SAM), S-adenosylhomocysteine (SAH), bicine, Tween20, dimethylsulfoxide (DMSO), bovine skin gelatin (BSG), sodium butyrate and Tris(2-carboxyethyl)phosphine hydrochloride solution (TCEP) were purchased from Sigma-Aldrich at the highest level of purity possible. ^3H-SAM was purchase from American Radiolabeled Chemicals with a specific activity of 80 Ci/mmol. 384-well streptavidin Flashplates were purchased from PerkinElmer.
Substrates. Peptide representative of human histone H4 residues 36-50 was synthesized with an N-terminal linker-affinity tag motif and a C-terminal amide cap by 21st Century Biochemicals.
The amplified gene was subcloned into pFastBacMam (Viva Biotech).
Protein Expression. Recombinant baculovirus were generated according to Bac-to-Bac kit instructions (Life Technologies). […] Infections were carried out at 37° C. for 48 hours, harvested by centrifugation, and stored at −80° C. for purification.
Protein Purification. […] Column was washed with 20 mM imidazole in the same buffer and Flag-PRMT6-His was eluted with 150 mM imidazole. Pooled fractions were dialysed against buffer Ni-A and further purified by anti-flag M2 affinity chromatography. Flag-PRMT6-His was eluted with 200 ug/ml FLAG peptide in the same buffer. Pooled fractions were dialysed in 20 mM Tris, 150 mM NaCl, 10% glycerol and 5 mM β-mercaptoethanol, pH 7.8.
as §1, with “PRMT6” for “PRMT1”, “PRMT6,” for “PRMT1,”, “400” for “300”
as §2, §3

For test [3], the system named is mono-methyl arginine in RKO cells. The test can be described thus: RKO methylation assay, In Cell Western for mono-methyl arginine and DNA content. The test is classed as cell-based. The note with it: Homo sapiens; In Cell Western, RKO cells, 72 hours, percent activation of mono-methyl arginine signal; read-out: EC30. From the text: RKO adherent cells were purchased from ATCC (American Type Culture Collection), Manassas, Va., USA. DMEM/Glutamax medium, penicillin-streptomycin, heat inactivated fetal bovine serum, 0.05% trypsin and D-PBS were purchased from Life Technologies, Grand Island, N.Y., USA. Odyssey blocking buffer, 800CW goat anti-rabbit IgG (H+L) antibody, and Licor Odyssey infrared scanner were purchased from Licor Biosciences, Lincoln, Nebr., USA. Mono-methyl arginine antibody was purchased from Cell Signaling Technology, Danvers, Mass., USA. Methanol was purchased from VWR, Franklin, Mass., USA. 10% Tween 20 was purchased from KPL, Inc., Gaithersburg, Md., USA. […] was purchased from Biostatus Limited, Leicestershire, UK.
RKO adherent cells were maintained in growth medium (DMEM/Glutamax medium supplemented with 10% v/v heat inactivated fetal bovine serum and 100 units/mL penicillin-streptomycin) and cultured at 37° C. under 5% CO2
Cell Treatment, in Cell Western (ICW) for Detection of Mono-Methyl Arginine and DNA Content. […] Compound (100 nL) from a 96-well source plate was added directly to 384 well cell plate. Plates were incubated at 37° C., 5% CO2 for 72 hours. After three days of incubation, plates were brought to room temperature outside of the incubator for ten minutes and blotted on paper towels to remove cell media. 50 μL of ice cold 100% methanol was added directly to each well and incubated for 30 min at room temperature. After 30 min, plates were transferred to a Biotek EL406 plate washer and washed 2 times with 100 μL per well of wash buffer (1×PBS). Next 60 μL per well of Odyssey blocking buffer (Odyssey Buffer with 0.1% Tween 20 (v/v)) were added to each plate and incubated 1 hour at room temperature. Blocking buffer was removed and 20 μL per well of primary antibody was added (mono-methyl arginine diluted 1:200 in Odyssey buffer with 0.1% Tween 20 (v/v)) and plates were incubated overnight (16 hours) at 4° C. Plates were washed 5 times with 100 μL per well of wash buffer. […] The plates were washed 5 times with 100 μL per well wash buffer then 2 times with 100 μL per well of water. Plates were allowed to dry at room temperature then imaged on the Licor Odyssey machine which measures integrated intensity at 700 nm and 800 nm wavelengths. Both 700 and 800 channels were scanned.
Calculations: First, the ratio for each well was determined by:
Each plate included fourteen control wells of DMSO only treatment (minimum activation) as well as fourteen control wells for maximum activation treated with 20 μM of a reference compound. The average of the ratio values for each control type was calculated and used to determine the percent activation for each test well in the plate. Reference compound was serially diluted three-fold in DMSO for a total of nine test concentrations, beginning at 20 μM. Percent activation was determined and EC30 curves were generated using triplicate wells per concentration of compound.

T2 sequence (Q96LA8 with tags, fused parts or gaps): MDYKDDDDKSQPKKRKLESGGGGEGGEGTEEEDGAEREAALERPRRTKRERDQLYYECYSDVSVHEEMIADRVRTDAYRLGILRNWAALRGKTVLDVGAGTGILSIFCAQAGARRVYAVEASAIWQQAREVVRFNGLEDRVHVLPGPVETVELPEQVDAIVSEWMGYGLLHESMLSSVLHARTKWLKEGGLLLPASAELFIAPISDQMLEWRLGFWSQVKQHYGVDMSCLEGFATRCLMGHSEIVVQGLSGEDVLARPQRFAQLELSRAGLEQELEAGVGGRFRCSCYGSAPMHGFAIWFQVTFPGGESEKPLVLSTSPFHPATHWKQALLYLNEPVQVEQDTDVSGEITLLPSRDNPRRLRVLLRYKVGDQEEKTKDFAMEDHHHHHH
T1 sequence (Q99873 with tags, fused parts or gaps): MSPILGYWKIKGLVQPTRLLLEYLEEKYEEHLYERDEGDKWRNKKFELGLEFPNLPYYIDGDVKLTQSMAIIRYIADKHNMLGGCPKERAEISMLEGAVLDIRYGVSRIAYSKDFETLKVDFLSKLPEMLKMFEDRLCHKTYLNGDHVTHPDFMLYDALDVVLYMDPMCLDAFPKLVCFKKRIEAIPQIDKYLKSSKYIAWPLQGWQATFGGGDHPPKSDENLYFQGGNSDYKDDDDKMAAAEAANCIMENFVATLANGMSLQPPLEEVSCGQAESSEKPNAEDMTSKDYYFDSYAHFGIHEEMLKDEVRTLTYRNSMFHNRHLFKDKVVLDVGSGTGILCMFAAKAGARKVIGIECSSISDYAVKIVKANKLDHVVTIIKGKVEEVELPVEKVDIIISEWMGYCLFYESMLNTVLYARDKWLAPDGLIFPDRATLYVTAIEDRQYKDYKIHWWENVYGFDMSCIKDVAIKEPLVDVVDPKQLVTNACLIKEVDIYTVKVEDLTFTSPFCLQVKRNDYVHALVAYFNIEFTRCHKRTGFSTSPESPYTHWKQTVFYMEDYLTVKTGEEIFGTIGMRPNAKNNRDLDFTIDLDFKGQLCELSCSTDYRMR

On to `CNCCN(C)Cc1n[nH]cc1-c1cc(OC(C)C)cc(C(C)C)c1` [Compound 272], for which the IC50 fell in the range of 101 to 1000 nM in test [1] and 1010 to 3000 nM in test [2]. Moreover, the concentration for an effect of 30% (EC30) in test [3] was > 12000 nM.
Taken in the same sequence, the figures for `CNCCN(C)Cc1n[nH]cc1-c1cc(Cl)c(OC(C)C)c(Cl)c1` [Compound 273] were < 100 nM, < 100 nM and < 3000 nM.
Taken in the same sequence, the figures for `CNCCN(C)Cc1c[nH]nc1-c1ccc(Oc2ccccc2C(=O)NC)cc1` [Compound 274] were < 100 nM, < 100 nM and < 3000 nM.
Consider `CNCCN(C)Cc1n[nH]c(C)c1-c1ccc(OC(C)C)cc1` [Compound 275], for which the half-maximal inhibitory concentration (IC50) in test [1] and in test [2] was < 100 nM throughout. Moreover, the EC30 in test [3] is < 3000 nM.
Consider `CNCCN(C)Cc1c(-c2ccc(OCCCOC)cc2)cnn1C` [Compound 276], for which the IC50 in test [1] is > 10000 nM; in test [2] it was 1010 to 3000 nM. In addition, in test [3], the concentration for an effect of 30% (EC30) was > 12000 nM.
`CNCCN(C)Cc1n[nH]cc1-c1ccc(Oc2cccc(C(C)C)c2)cc1` [Compound 277]: the half-maximal inhibitory concentration (IC50) in test [1] and in test [2] was < 100 nM throughout. Besides, the concentration for an effect of 30% (EC30) in test [3] was > 12000 nM.
With `CNCCN(C)Cc1n[nH]cc1-c1ccc(Oc2ccccc2F)cc1` [Compound 279, N^1-((4-(4-(2-fluorophenoxy)phenyl)-1H-pyrazol-3-yl)methyl)-N^1,N^2-dimethylethane-1,2-diamine], the half-inhibitory concentration (IC50) in test [1] and in test [2] was < 100 nM each time. The EC30 in test [3] was < 3000 nM.
Take `CC(C)Cc1cc(-c2n[nH]cc2CN(C)CCN)ccc1F` [Compound 280]: the IC50 in test [1] and in test [2] was < 100 nM each time. The concentration for an effect of 30% (EC30) in test [3] was < 3000 nM.
In the case of `CNCCN(C)Cc1c[nH]nc1-c1cc(CC(C)C)cc(CC(C)C)c1` [Compound 281], the IC50 is < 100 nM in test [1] and 101 to 1000 nM in test [2]. The EC30 in test [3] was 3010 to 12000 nM.
Regarding `CNCCN(C)Cc1c[nH]nc1-c1cc(Cl)c(OCC2CC2)c(Cl)c1` [Compound 282], the concentration for half-maximal inhibition (IC50) in test [1] and in test [2] was < 100 nM in each case. Also, the EC30 in test [3] is < 3000 nM.
